Source: patent publication EP0908457B1, “3-(1,2-benzisothiazol- and isoxazol-5-Y1)-2,4(1H,3H)-pyrimidinedione or thione and 3-(1,2-benzisothiazol- and isoxazol-5-y1)-4(3H)-pyrimidinone or thione herbicidal agents” (BASF AKTIENGESELLSCHAFT, priority 1997, dated 1999)

Columns and labels:
[1] = tested on: Sagittaria pygmaea, L.; experiment: Preemergence weed control under flooded paddy conditions, SAGPY (Arrowhead (Pygmaea)); format: in vivo; settings: preemergence, flooded paddy, rated three to four weeks after treatment; on herbicidal effect rating, SAGPY: meaning of each grade not given here
[2] = tested on: Cyperus serotinus, Rottb.; experiment: Preemergence weed control under flooded paddy conditions, CYPSE (Flatsedge); format: in vivo; settings: preemergence, rated three to four weeks after treatment; on herbicidal effect rating, CYPSE: meaning of each grade not given here
[3] = tested on: Cyperus iria; experiment: Preemergence weed control under flooded paddy conditions, CYPIR (Rice Flatsedge); format: in vivo; settings: preemergence, flooded paddy, rated three to four weeks after treatment; on herbicidal effect rating, CYPIR: meaning of each grade not given here
[4] = tested on: Monochoria vaginalis, Presl.; experiment: Preemergence weed control under flooded paddy conditions, MOOVA (Monochoria); format: in vivo; settings: preemergence, flooded paddy, rated three to four weeks after treatment; on herbicidal effect rating, MOOVA: meaning of each grade not given here
[5] = tested on: Oryza sativa, (L.) Tebonnet; experiment: Rice tolerance to post-transplant applications under flooded paddy conditions (Example 187), ORYSAT (Rice, Tebonnet); settings: rated three to four weeks after treatment
[6] = tested on: Echinochloa oryzoides (Ard.) Fritsch.; experiment: Preemergence weed control under flooded paddy conditions, ECHORC (Watergrass (Calif.)); format: in vivo; settings: preemergence, flooded paddy, rated three to four weeks after treatment; on herbicidal effect rating, ECHORC: meaning of each grade not given here

Question: Which SAGPY herbicidal rating ([1]; 0.0320 kg/ha) does the source give for `CSCOCc1nsc2ccc(-n3c(=O)cc(C(F)(F)F)n(C)c3=O)cc12` [Example 484, 2,4(1H,3H)-Pyrimidinedione, 1-methyl-3-{3-{[(methylthio)methoxy]methyl}-1,2-benzisothiazol-5-yl}-6-(trifluoromethyl)-] here?
Answer: The SAGPY herbicidal rating was 5.0.

Question: What about the CYPSE herbicidal rating ([2]; 0.0320 kg/ha) of the same compound?
Answer: The CYPSE herbicidal rating was 0.0.

Question: And the CYPIR herbicidal rating ([3]; 0.0320 kg/ha)?
Answer: Its CYPIR herbicidal rating is 4.0.

Question: And the CYPIR herbicidal rating ([3]; 0.0620 kg/ha)?
Answer: The CYPIR herbicidal rating was 4.0.

Question: What about the CYPIR herbicidal rating ([3]; 0.1250 kg/ha) of the same compound?
Answer: Its CYPIR herbicidal rating is 6.0.

Question: What about the CYPIR herbicidal rating ([3]; 0.2500 kg/ha) of the same compound?
Answer: The CYPIR herbicidal rating was 9.0.

Question: And the MOOVA herbicidal rating ([4]; 0.0320 kg/ha)?
Answer: Its MOOVA herbicidal rating is 7.0.

Question: And the MOOVA herbicidal rating ([4]; 0.0620 kg/ha)?
Answer: Its MOOVA herbicidal rating is 9.0.

Question: And the MOOVA herbicidal rating ([4]; 0.1250 kg/ha)?
Answer: Its MOOVA herbicidal rating is 9.0.

Question: What about the MOOVA herbicidal rating ([4]; 0.2500 kg/ha) of the same compound?
Answer: The MOOVA herbicidal rating was 9.0.

Question: What about the “ORYSAT herbicidal rating (rice tolerance)” value (“ORYSAT herbicidal rating” below) ([5]; 0.0320 kg/ha) of the same compound?
Answer: The value was 5.0.

Question: And the “ORYSAT herbicidal rating” value ([5]; 0.0620 kg/ha)?
Answer: The value was 5.0.

Question: What about the “ORYSAT herbicidal rating” value ([5]; 0.1250 kg/ha) of the same compound?
Answer: The value was 6.0.

Question: What about the “ORYSAT herbicidal rating” value ([5]; 0.2500 kg/ha) of the same compound?
Answer: The value was 6.0.

Question: What about the ECHORC herbicidal rating ([6]; 0.0320 kg/ha) of the same compound?
Answer: The ECHORC herbicidal rating was 5.0.

Question: And the ECHORC herbicidal rating ([6]; 0.0620 kg/ha)?
Answer: Its ECHORC herbicidal rating is 4.0.

Question: What about the ECHORC herbicidal rating ([6]; 0.1250 kg/ha) of the same compound?
Answer: Its ECHORC herbicidal rating is 7.0.

Question: And the ECHORC herbicidal rating ([6]; 0.2500 kg/ha)?
Answer: Its ECHORC herbicidal rating is 9.0.

Question: For `CCCCS(=O)(=O)NC(=O)COc1ccc(C)cc1-c1nsc2ccc(-n3c(=O)cc(C(F)(F)F)n(C)c3=O)cc12` [Example 573, Acetamide, N-(butylsulfonyl)-2-{{2-{5-[3,6-dihydro-3-methyl-2,6-dioxo-4-(trifluoromethyl)-1(2H)-pyrimidinyl]-1,2-benzisothiazol-3-yl}-p-tolyl}oxy}-], which “herbicidal effect rating, SAGPY” value ([1]; Rate 0.0320 kg/ha) is on record?
Answer: The value was 0.0.

Question: What about the “herbicidal effect rating, SAGPY” value ([1]; Rate 0.0620 kg/ha) of the same compound?
Answer: Its value is 0.0.

Question: And the “herbicidal effect rating, SAGPY” value ([1]; Rate 0.1250 kg/ha)?
Answer: The value was 0.0.

Question: What about the “herbicidal effect rating, SAGPY” value ([1]; Rate 0.2500 kg/ha) of the same compound?
Answer: The value was 2.0.

Question: What about the “herbicidal effect rating, CYPSE” value ([2]; Rate 0.0320 kg/ha) of the same compound?
Answer: Its value is 0.0.

Question: And the “herbicidal effect rating, CYPSE” value ([2]; Rate 0.0620 kg/ha)?
Answer: The value was 0.0.

Question: And the “herbicidal effect rating, CYPSE” value ([2]; Rate 0.1250 kg/ha)?
Answer: Its value is 0.0.

Question: What about the “herbicidal effect rating, CYPSE” value ([2]; Rate 0.2500 kg/ha) of the same compound?
Answer: The value was 4.0.

Question: What about the “herbicidal effect rating, CYPIR” value ([3]; Rate 0.0320 kg/ha) of the same compound?
Answer: Its value is 0.0.

Question: What about the “herbicidal effect rating, CYPIR” value ([3]; Rate 0.0620 kg/ha) of the same compound?
Answer: The value was 3.0.

Question: And the “herbicidal effect rating, CYPIR” value ([3]; Rate 0.1250 kg/ha)?
Answer: Its value is 5.0.

Question: And the “herbicidal effect rating, CYPIR” value ([3]; Rate 0.2500 kg/ha)?
Answer: Its value is 5.0.

Question: What about the “herbicidal effect rating, MOOVA” value ([4]; Rate 0.0320 kg/ha) of the same compound?
Answer: Its value is 9.0.

Question: And the “herbicidal effect rating, MOOVA” value ([4]; Rate 0.0620 kg/ha)?
Answer: Its value is 9.0.

Question: What about the “herbicidal effect rating, MOOVA” value ([4]; Rate 0.1250 kg/ha) of the same compound?
Answer: Its value is 9.0.

Question: And the “herbicidal effect rating, MOOVA” value ([4]; Rate 0.2500 kg/ha)?
Answer: Its value is 9.0.

Question: And the “herbicidal effect rating ORYSAT” value ([5]; Rate 0.0320 kg/ha)?
Answer: Its value is 0.0.

Question: And the “herbicidal effect rating ORYSAT” value ([5]; Rate 0.0620 kg/ha)?
Answer: The value was 0.0.

Question: What about the “herbicidal effect rating ORYSAT” value ([5]; Rate 0.1250 kg/ha) of the same compound?
Answer: Its value is 0.0.

Question: And the “herbicidal effect rating ORYSAT” value ([5]; Rate 0.2500 kg/ha)?
Answer: The value was 1.0.

Question: What about the “herbicidal effect rating, ECHORC” value ([6]; Rate 0.0320 kg/ha) of the same compound?
Answer: The value was 6.0.

Question: And the “herbicidal effect rating, ECHORC” value ([6]; Rate 0.0620 kg/ha)?
Answer: Its value is 7.0.

Question: What about the “herbicidal effect rating, ECHORC” value ([6]; Rate 0.1250 kg/ha) of the same compound?
Answer: The value was 7.0.

Question: And the “herbicidal effect rating, ECHORC” value ([6]; Rate 0.2500 kg/ha)?
Answer: The value was 7.0.

Question: `CCOc1ccc2sc(S(=O)(=O)NC(=O)COc3ccc(C)cc3-c3nsc4ccc(-n5c(=O)cc(C(F)(F)F)n(C)c5=O)cc34)nc2c1` [Example 289, Acetamide, 2-{{2-{5-[3,6-dihydro-3-methyl-2,6-dioxo-4-(trifluoromethyl)-1(2H)-pyrimidinyl]-1,2-benzisothiazol-3-yl}-p-tolyl}oxy}-N-[(5-ethoxybenzothiazol-2-yl)sulfonyl]-] was tested. Which “SAGPY herbicidal effect rating” value ([1]; Rate 0.0320 kg/ha) did it give?
Answer: The value was 0.0.

Question: And the “SAGPY herbicidal effect rating” value ([1]; Rate 0.0620 kg/ha)?
Answer: The value was 0.0.

Question: What about the “SAGPY herbicidal effect rating” value ([1]; Rate 0.1250 kg/ha) of the same compound?
Answer: The value was 0.0.

Question: What about the “SAGPY herbicidal effect rating” value ([1]; Rate 0.2500 kg/ha) of the same compound?
Answer: The value was 0.0.

Question: What about the “CYPSE herbicidal effect rating” value ([2]; Rate 0.0320 kg/ha) of the same compound?
Answer: Its value is 0.0.

Question: And the “CYPSE herbicidal effect rating” value ([2]; Rate 0.0620 kg/ha)?
Answer: The value was 0.0.

Question: What about the “CYPSE herbicidal effect rating” value ([2]; Rate 0.1250 kg/ha) of the same compound?
Answer: Its value is 0.0.

Question: And the “CYPSE herbicidal effect rating” value ([2]; Rate 0.2500 kg/ha)?
Answer: Its value is 0.0.

Question: And the “CYPIR herbicidal effect rating” value ([3]; Rate 0.0320 kg/ha)?
Answer: Its value is 0.0.

Question: What about the “CYPIR herbicidal effect rating” value ([3]; Rate 0.0620 kg/ha) of the same compound?
Answer: The value was 0.0.

Question: And the “CYPIR herbicidal effect rating” value ([3]; Rate 0.1250 kg/ha)?
Answer: Its value is 9.0.

Question: What about the “CYPIR herbicidal effect rating” value ([3]; Rate 0.2500 kg/ha) of the same compound?
Answer: The value was 9.0.

Question: And the “MOOVA herbicidal effect rating” value ([4]; Rate 0.0320 kg/ha)?
Answer: Its value is 0.0.

Question: And the “MOOVA herbicidal effect rating” value ([4]; Rate 0.0620 kg/ha)?
Answer: Its value is 0.0.

Question: And the “MOOVA herbicidal effect rating” value ([4]; Rate 0.1250 kg/ha)?
Answer: Its value is 9.0.

Question: And the “MOOVA herbicidal effect rating” value ([4]; Rate 0.2500 kg/ha)?
Answer: The value was 9.0.

Question: And the “ORYSAT herbicidal effect rating” value ([5]; Rate 0.0320 kg/ha)?
Answer: The value was 0.0.

Question: What about the “ORYSAT herbicidal effect rating” value ([5]; Rate 0.0620 kg/ha) of the same compound?
Answer: Its value is 0.0.

Question: And the “ORYSAT herbicidal effect rating” value ([5]; Rate 0.1250 kg/ha)?
Answer: Its value is 0.0.

Question: What about the “ORYSAT herbicidal effect rating” value ([5]; Rate 0.2500 kg/ha) of the same compound?
Answer: The value was 0.0.

Question: And the “ECHORC herbicidal effect rating” value ([6]; Rate 0.0320 kg/ha)?
Answer: Its value is 0.0.

Question: What about the “ECHORC herbicidal effect rating” value ([6]; Rate 0.0620 kg/ha) of the same compound?
Answer: The value was 2.0.

Question: And the “ECHORC herbicidal effect rating” value ([6]; Rate 0.1250 kg/ha)?
Answer: Its value is 3.0.

Question: And the “ECHORC herbicidal effect rating” value ([6]; Rate 0.2500 kg/ha)?
Answer: Its value is 4.0.
